Assay results: the supplement of paper PMC10627819

Columns and labels:
[1] = system: S. aureus Newman; assay: Bliss interaction score (quartile over a dose matrix) (fitness difference); higher = more antagonism (negative = synergy)
Outline: (§1)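 Each plate was normalised to the robust mean of its own no-drug wells, using OD595 at entry into stationary phase, with values capped at 1. This normalised growth is the fitness value. The Bliss score is the difference between observed and product-expected fitness, with single-drug fitness inferred from the combination data and quartiles taken over technical, biological and donor/recipient replicates.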

[2] = system: S. aureus DSM 20231; assay: as above
Outline: as §1

[3] = system: B. subtilis 168; assay: as above
Outline: as §1

[4] = system: S. pneumoniae D39V; assay: as above
Outline: as §1

[5] = system: S. aureus Newman; assay: fitness (endpoint OD595 vs no drug) (fraction); higher = more growth
Outline: (§2)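 With the first reading as background, OD595 was measured every 30 min for 14 h in 384-well plates kept at 37 °C and inoculated at OD595 0.01. TSB, LB Lennox or CY was the medium. Fitness is the optical density at the transition into stationary phase divided by the robust mean of no-drug control wells, with a cap of 1.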

[6] = system: S. aureus DSM 20231; assay: as above
Outline: as §2

[7] = system: B. subtilis 168; assay: as above
Outline: as §2

[8] = system: S. pneumoniae D39V; assay: as above
Outline: as §2
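Throughout, for Bliss interaction score (quartile over a dose matrix): first quartile when negative (synergy) and third quartile when positive (antagonism).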

Cc1ncc([N+](=O)[O-])n1CCO [Metronidazole] + Cc1onc(-c2ccccc2)c1C(=O)N[C@@H]1C(=O)N2[C@@H]1SC(C)(C)[C@@H]2C(=O)O [Oxacillin]
Details	Bliss interaction score
[1]	0.0703
[2]	0.0451
[3]	0.0534
[4]	0.144

fitness
Details	first compound 0.625 µg/mL	first compound 1.073 µg/mL	first compound 1.25 µg/mL	first compound 2.145 µg/mL	first compound 2.5 µg/mL	first compound 4.29 µg/mL	first compound 5 µg/mL
[5], partner 0.0156 µg/mL	0.772	–	0.785	–	0.768	–	–
[5], partner 0.0312 µg/mL	0.737	–	0.786	–	0.702	–	–
[5], partner 0.0625 µg/mL	0.658	–	0.551	–	0.601	–	–
[6], partner 0.0156 µg/mL	0.937	–	≥ 1	–	0.991	–	–
[6], partner 0.0312 µg/mL	–	–	0.816	–	0.828	–	–
[6], partner 0.0625 µg/mL	0.632	–	0.645	–	–	–	–
[7], partner 0.002 µg/mL	0.972	–	0.962	–	0.942	–	–
[7], partner 0.004 µg/mL	0.957	–	≥ 1	–	0.942	–	–
[7], partner 0.008 µg/mL	0.946	–	0.869	–	0.858	–	–
[8], partner 0.01 µg/mL	–	0.971	0.985	0.891	0.981	0.965	0.97
[8], partner 0.02 µg/mL	–	0.964	0.959	0.967	0.995	–	0.948
[8], partner 0.04 µg/mL	–	0.845	0.625	0.888	0.648	0.839	0.566

fitness, one replicate
Details	first compound 0.625 µg/mL	first compound 0.781 µg/mL	first compound 1.25 µg/mL	first compound 1.562 µg/mL	first compound 2.5 µg/mL	first compound 3.124 µg/mL
[5], partner 0.0156 µg/mL	–	0.826	–	0.749	–	0.817
[5], partner 0.0312 µg/mL	–	0.737	–	0.737	–	0.721
[5], partner 0.0625 µg/mL	–	0.655	–	0.643	–	0.705
[7], partner 0.075 µg/mL	0.548	–	0.664	–	0.507	–
[7], partner 0.15 µg/mL	0.0434	–	0.0679	–	0.0716	–
[7], partner 0.3 µg/mL	0.0488	–	0.0601	–	0.0718	–

COc1ccc(C[C@H](N)C(=O)N[C@H]2[C@@H](O)[C@H](n3cnc4c(N(C)C)ncnc43)O[C@@H]2CO)cc1 [Puromycin] + CC1=C\[C@@H](O)CC(=O)Cc2nc(co2)C(=O)N2CCC=C2C(=O)O[C@H](C(C)C)[C@H](C)/C=C/C(=O)NC\C=C\1 [Virginiamycin M1]
Details	Bliss interaction score
[1]	0.0481
[2]	0.0808
[3]	0.0535
[4]	0.0811

Details	fitness
[5], first compound 0.39 µg/mL, partner 0.0625 µg/mL	0.988
[5], first compound 0.39 µg/mL, partner 0.125 µg/mL	≥ 1
[5], first compound 0.39 µg/mL, partner 0.25 µg/mL	0.999
[5], first compound 0.78 µg/mL, partner 0.0625 µg/mL	0.986
[5], first compound 0.78 µg/mL, partner 0.125 µg/mL	≥ 1
[5], first compound 0.78 µg/mL, partner 0.25 µg/mL	0.984
[5], first compound 1.56 µg/mL, partner 0.0625 µg/mL	0.998
[5], first compound 1.56 µg/mL, partner 0.125 µg/mL	0.977
[5], first compound 1.56 µg/mL, partner 0.25 µg/mL	0.986
[6], first compound 0.39 µg/mL, partner 0.0625 µg/mL	0.981
[6], first compound 0.39 µg/mL, partner 0.125 µg/mL	≥ 1
[6], first compound 0.39 µg/mL, partner 0.25 µg/mL	0.926
[6], first compound 0.78 µg/mL, partner 0.125 µg/mL	0.807
[6], first compound 0.78 µg/mL, partner 0.25 µg/mL	0.978
[6], first compound 1.56 µg/mL, partner 0.0625 µg/mL	0.998
[6], first compound 1.56 µg/mL, partner 0.125 µg/mL	≥ 1
[6], first compound 1.56 µg/mL, partner 0.25 µg/mL	0.98
[7], first compound 0.39 µg/mL, partner 0.0625 µg/mL	0.975
[7], first compound 0.39 µg/mL, partner 0.125 µg/mL	0.947
[7], first compound 0.39 µg/mL, partner 0.25 µg/mL	≥ 1
[7], first compound 0.78 µg/mL, partner 0.0625 µg/mL	0.94
[7], first compound 0.78 µg/mL, partner 0.125 µg/mL	0.908
[7], first compound 0.78 µg/mL, partner 0.25 µg/mL	0.963
[7], first compound 1.56 µg/mL, partner 0.0625 µg/mL	0.948
[7], first compound 1.56 µg/mL, partner 0.125 µg/mL	0.884
[7], first compound 1.56 µg/mL, partner 0.25 µg/mL	0.87
[8], first compound 1 µg/mL, partner 0.5 µg/mL	0.976
[8], first compound 1 µg/mL, partner 1 µg/mL	0.952
[8], first compound 1 µg/mL, partner 2 µg/mL	0.908
[8], first compound 2 µg/mL, partner 0.5 µg/mL	0.986
[8], first compound 2 µg/mL, partner 1 µg/mL	0.969
[8], first compound 2 µg/mL, partner 2 µg/mL	0.886
[8], first compound 4 µg/mL, partner 0.5 µg/mL	0.847
[8], first compound 4 µg/mL, partner 1 µg/mL	0.783
[8], first compound 4 µg/mL, partner 2 µg/mL	0.804

one replicate
Details	fitness
[5], first compound 0.39 µg/mL, partner 0.5 µg/mL	0.877
[5], first compound 0.39 µg/mL, partner 1 µg/mL	≥ 1
[5], first compound 0.39 µg/mL, partner 2 µg/mL	0.907
[5], first compound 0.78 µg/mL, partner 0.5 µg/mL	0.948
[5], first compound 0.78 µg/mL, partner 1 µg/mL	0.988
[5], first compound 0.78 µg/mL, partner 2 µg/mL	0.87
[5], first compound 1.56 µg/mL, partner 0.5 µg/mL	0.942
[5], first compound 1.56 µg/mL, partner 1 µg/mL	≥ 1
[5], first compound 1.56 µg/mL, partner 2 µg/mL	0.919
[6], first compound 0.39 µg/mL, partner 0.5 µg/mL	0.858
[6], first compound 0.39 µg/mL, partner 1 µg/mL	0.798
[6], first compound 0.78 µg/mL, partner 0.5 µg/mL	0.924
[6], first compound 0.78 µg/mL, partner 1 µg/mL	0.917
[6], first compound 1.56 µg/mL, partner 0.5 µg/mL	0.939
[6], first compound 1.56 µg/mL, partner 1 µg/mL	0.941
[6], first compound 3.12 µg/mL, partner 0.0625 µg/mL	0.99
[6], first compound 3.12 µg/mL, partner 0.125 µg/mL	0.996
[6], first compound 3.12 µg/mL, partner 0.25 µg/mL	0.931
[6], first compound 6.24 µg/mL, partner 0.0625 µg/mL	0.67
[6], first compound 6.24 µg/mL, partner 0.125 µg/mL	0.706
[6], first compound 6.24 µg/mL, partner 0.25 µg/mL	0.851
[8], first compound 1 µg/mL, partner 0.15 µg/mL	≥ 1
[8], first compound 1 µg/mL, partner 0.3 µg/mL	≥ 1
[8], first compound 2 µg/mL, partner 0.15 µg/mL	≥ 1
[8], first compound 2 µg/mL, partner 0.3 µg/mL	0.983
[8], first compound 4 µg/mL, partner 0.15 µg/mL	0.981
[8], first compound 4 µg/mL, partner 0.3 µg/mL	0.948

COc1ccc(C[C@H](N)C(=O)N[C@H]2[C@@H](O)[C@H](n3cnc4c(N(C)C)ncnc43)O[C@@H]2CO)cc1 [Puromycin] + CN1C2=CC=CC=C2N=C3C1=CC=CC3=O [Pyocyanin]
Details	Bliss interaction score
[1]	0.104
[2]	0.0671
[3]	-0.0765
[4]	-0.117

fitness
Details	first compound 0.39 µg/mL	first compound 0.78 µg/mL	first compound 1 µg/mL	first compound 1.56 µg/mL	first compound 2 µg/mL	first compound 4 µg/mL
[5], partner 1.25 µg/mL	0.907	0.902	–	0.918	–	–
[5], partner 2.5 µg/mL	0.785	0.824	–	0.845	–	–
[5], partner 5 µg/mL	0.476	0.44	–	0.417	–	–
[6], partner 1.25 µg/mL	0.86	0.945	–	≥ 1	–	–
[6], partner 2.5 µg/mL	0.96	0.957	–	0.967	–	–
[6], partner 5 µg/mL	0.67	0.725	–	0.681	–	–
[7], partner 1.25 µg/mL	0.879	0.847	–	0.89	–	–
[7], partner 2.5 µg/mL	0.875	0.812	–	0.823	–	–
[7], partner 5 µg/mL	0.679	0.666	–	0.656	–	–
[8], partner 0.325 µg/mL	–	–	0.977	–	0.975	0.792
[8], partner 0.65 µg/mL	–	–	0.926	–	0.866	0.697

one replicate
Details	fitness
[6], first compound 3.12 µg/mL, partner 1.25 µg/mL	0.946
[6], first compound 3.12 µg/mL, partner 2.5 µg/mL	0.844
[6], first compound 3.12 µg/mL, partner 5 µg/mL	0.482
[6], first compound 6.24 µg/mL, partner 1.25 µg/mL	0.756
[6], first compound 6.24 µg/mL, partner 2.5 µg/mL	0.632
[6], first compound 6.24 µg/mL, partner 5 µg/mL	0.248
[8], first compound 1 µg/mL, partner 1.3 µg/mL	0.394
[8], first compound 2 µg/mL, partner 1.3 µg/mL	0.34
[8], first compound 4 µg/mL, partner 1.3 µg/mL	0.294

COc1ccc(C[C@H](N)C(=O)N[C@H]2[C@@H](O)[C@H](n3cnc4c(N(C)C)ncnc43)O[C@@H]2CO)cc1 [Puromycin] + CN(N=O)C(=O)N[C@@H](C=O)[C@@H](O)[C@H](O)[C@H](O)CO [Streptozotocin]
Details	Bliss interaction score
[1]	0.0523
[2]	0.0762
[3]	0.0705
[4]	0.0919

fitness
Details	first compound 0.39 µg/mL	first compound 0.78 µg/mL	first compound 1 µg/mL	first compound 1.56 µg/mL	first compound 2 µg/mL	first compound 4 µg/mL
[5], partner 0.15 µg/mL	0.912	0.835	–	0.871	–	–
[5], partner 0.3 µg/mL	0.737	0.7	–	0.706	–	–
[5], partner 0.6 µg/mL	0.595	0.534	–	0.559	–	–
[6], partner 0.15 µg/mL	0.894	0.887	–	0.937	–	–
[6], partner 0.3 µg/mL	0.863	0.857	–	0.812	–	–
[6], partner 0.6 µg/mL	0.714	0.772	–	0.705	–	–
[8], partner 1.2 µg/mL	–	–	0.913	–	0.942	0.8
[8], partner 2.4 µg/mL	–	–	0.943	–	0.935	0.806
[8], partner 4.8 µg/mL	–	–	0.969	–	0.926	0.749

fitness, one replicate
Details	partner 0.15 µg/mL	partner 0.3 µg/mL	partner 0.6 µg/mL
[6], first compound 3.12 µg/mL	0.907	0.853	0.806
[6], first compound 6.24 µg/mL	0.706	0.6	0.549
[7], first compound 0.39 µg/mL	0.999	0.978	≥ 1
[7], first compound 0.78 µg/mL	≥ 1	≥ 1	0.981
[7], first compound 1.56 µg/mL	≥ 1	0.925	0.938
